Reference: US11632973B2, “Composition comprising taste modulation compounds, their use and foodstuff comprising them” (V. MANE FILS, priority 2015, dated 2023)
Entries after “also recorded” stand apart in the source; their conditions may differ.

Columns and labels:
Format in all cases: in vivo
[1] = tested on: panelists; assay: Various lactams added to cheese sauce, saltiness evaluation (Deviation from Reference); conditions: for perception of creaminess / perception of saltiness: cheese sauce comprising the compound, compared to the control; for Test Effects Taster 1 / Test Effects Taster 2 / Test Effects Taster 3 / Test Effects Taster 4: cheese sauce plus 5 ppm compound, compared with cheese sauce alone
Experimental: Epsilon-caprolactam, 2-piperidone, and N-methylcaprolactam were added to cheese sauce.
All cheese sauce samples were served at 21° C. Samples were stirred by hand prior to portioning to ensure even distribution of components. Approximately 9 ml of cheese sauce was served into odorless, translucent, one-ounce cups labeled with three-digit codes and capped with a lid. The samples were portioned out approximately 45 minutes prior to evaluation.
Panelists evaluated all samples in fully enclosed partitioned booths under white lights. Fizz NETWORK Software Acquisitions Biosystemes 2.47B was used for data collection. Each panelist was provided with filtered water for rinsing and instructed to follow a strict rinsing procedure. The rinsing protocol required panelists to rinse prior to tasting the first sample, and after tasting each sample.
Samples were evaluated using a Deviation from Reference (DFR) method. Panelists were given an identified reference labeled “000” and a coded sample simultaneously. The coded sample was either a blind, coded reference or a coded test sample. The panelists were instructed to taste the reference (000) first and mentally evaluate its SALTINESS intensity. Panelists were then instructed to taste and rate the coded sample's intensity for SALTINESS compared to the identified reference. Sample sets were given to the panelists in balanced, randomized order. A one-minute wait period was enforced between sample sets to reduce flavour carryover.
Panelists rated SALTINESS intensity difference from the reference using a 9-pt scale anchored with the following descriptors: (−4) Extremely less than Reference, (0) Same as Reference, (4) Extremely more than Reference. Number values were NOT shown on the scale. Statistical mean differences were calculated using one-way ANOVA using Fizz Calculations Biosystemes 2.47B. A significance level of p≤0.05 was set for statistical tests. Compared to the control the perceptions of saltiness and creaminess in the cheese sauce comprising epsilon-caprolactam, 2-piperidone, and N-methylcaprolactam is increased.

[2] = tested on: expert tasters; assay: Effect on sweetness perception of Rebaudioside-A in water; conditions: for Taster Observations Taster 1 / Taster Observations Taster 2 / Taster Observations Taster 3 / Taster Observations Taster 4: Reb-A 250 ppm in water, TMC level 5 ppm; for bitter interference: Rebaudioside-A at 250 ppm, 5 ppm compound; for perception of sweetness: products with high intensity sweetener, four expert tasters, vs control
Experimental: The taste perception of the products containing the high intensity sweeteners without epsilon-caprolactam or 2-piperidone (Control) is compared with the same product (Test) containing epsilon-caprolactam or 2-piperidone. […] When a tasting solution is dosed with Rebaudioside-A at 250 ppm, with either epsilon-caprolactam or 2-piperidone at each 5 ppm, “bitter interference” and brightens pure sweetness are reduced.

[3] = tested on: expert tasters; assay: as above
[4] = Reb-A 25 ppm in water, TMC level 5 ppm

SMILES | perception of creaminess [1] | perception of saltiness [1] | Test Effects Taster 1 [1] | Test Effects Taster 2 [1] | Test Effects Taster 3 [1] | Test Effects Taster 4 [1] | Taster Observations Taster 1 [2] | Taster Observations Taster 2 [2] | Taster Observations Taster 3 [2] | Taster Observations Taster 4 [2] | bitter interference [2] | perception of sweetness [2] | Taster Observations Taster 1 [3, 4] | Taster Observations Taster 2 [3, 4] | Taster Observations Taster 4 [3, 4] | Taster Observations Taster 3 [3, 4] | sweetness ([3]; Rebaudioside-A at 25 ppm, 5 ppm compound)
O=C1CCCCCN1 [epsilon-caprolactam] | increased | increased | Slightly bitter; also recorded: Increased saltiness | Sweeter with less linger | Cleaner; also recorded: Less lingering; also recorded: Sweeter upfront | Cleaner; also recorded: Less lingering; also recorded: Sweeter upfront | sweeter, less; also recorded: lingering,; also recorded: slightly bitter | less linger | sweeter; also recorded: cleaner,; also recorded: less lingering | sweeter upfront,; also recorded: cleaner,; also recorded: less lingering | reduced | purified and amplified | sweet,; also recorded: slightly bitter | dirty,; also recorded: unclean | slightly higher; also recorded: sweet | – | –
O=C1CCCCN1 [2-piperidone] | increased | increased | Delayed saltier; also recorded: More dairy impact | Increased saltiness; also recorded: Increased creaminess | Saltier; also recorded: Creamier | Clean sweet; also recorded: Stronger sweet | clean sweet,; also recorded: control | clean sweet,; also recorded: no lingering | clean sweet,; also recorded: no bitter,; also recorded: not linger | clean sweet,; also recorded: stronger sweet | reduced | purified and amplified | sweeter,; also recorded: clean | clean sweet,; also recorded: no bitter | best - sweetest,; also recorded: clean | no bitter | purified and amplified
CN1CCCCCC1=O [N-methylcaprolactam] | increased | increased | Slight increase in saltiness | Unclean; also recorded: Slightly bitter | Bitter; also recorded: Increased saltiness | Least effective of three | – | – | – | – | – | – | – | – | – | – | –
